From ChEMBL document CHEMBL1926637, “Stereoselective synthesis and QSAR study of cytotoxic 2-(4-oxo-thiazolidin-2-ylidene)-2-cyano-N-arylacetamides” (Eur J Med Chem, 2012)

What was measured:
Type in all cases: functional, cell-based
HCT-116 = test: Cytotoxicity against human HCT116 cells after 48 hrs by sulforhodamine B assay; conditions: HCT-116, 48 h
MCF7 = test: Cytotoxicity against human MCF7 cells after 48 hrs by sulforhodamine B assay; conditions: MCF7, 48 h
HepG2 = test: Cytotoxicity against human HepG2 cells after 48 hrs by sulforhodamine B assay; conditions: HepG2, 48 h

Cc1ccc(NC(=O)/C(C#N)=C2\S/C(=N\Nc3ccc(Cl)cc3)C(=O)N2c2ccccc2)cc1
IC50 (HCT-116): 14.9 µM | IC50 (MCF7): > 102 µM

N#C/C(C(=O)Nc1ccc(Cl)cc1)=c1/s/c(=C\c2ccccc2O)c(=O)n1-c1ccccc1
IC50 (HepG2): 12.4 µM | IC50 (HCT-116): 6.92 µM | IC50 (MCF7): 7.89 µM

Cc1ccc(NC(=O)/C(C#N)=C2\S/C(=N\Nc3ccccc3)C(=O)N2c2ccccc2)cc1
IC50 (HepG2): 24.2 µM | IC50 (HCT-116): > 110 µM

N#C/C(C(=O)Nc1ccc(Cl)cc1)=c1/s/c(=C\c2ccc(Cl)cc2)c(=O)n1-c1ccccc1
IC50 (HepG2): > 102 µM | IC50 (HCT-116): 9.15 µM | IC50 (MCF7): > 102 µM

Cc1ccc(NC(=O)/C(C#N)=c2\s/c(=C\c3ccc(Cl)cc3)c(=O)n2-c2ccccc2)cc1
IC50 (HepG2): 48.3 µM | IC50 (HCT-116): 28.4 µM | IC50 (MCF7): 28.6 µM

COc1cccc2c1C(=O)c1c(O)c3c(c(O)c1C2=O)C[C@@](O)(C(=O)CO)C[C@@H]3O[C@H]1C[C@H](N)[C@H](O)[C@H](C)O1 [DOXORUBICIN]
IC50 (HepG2): 7.36 µM | IC50 (HCT-116): 6.86 µM

COc1ccc(N/N=C2\S/C(=C(/C#N)C(=O)Nc3ccc(C)cc3)N(c3ccccc3)C2=O)cc1
IC50 (HepG2): 34.1 µM | IC50 (HCT-116): > 103 µM

COc1ccc(/C=c2\s/c(=C(/C#N)C(=O)Nc3ccccc3)n(-c3ccccc3)c2=O)cc1
IC50 (HepG2): 30.4 µM | IC50 (HCT-116): 6.61 µM | IC50 (MCF7): 7.89 µM

N#C/C(C(=O)Nc1ccc(Cl)cc1)=c1/s/c(=C\c2ccccc2)c(=O)n1-c1ccccc1
IC50 (HepG2): 49.1 µM | IC50 (HCT-116): 38.9 µM | IC50 (MCF7): 77.5 µM

N#C/C(C(=O)Nc1ccccc1)=C1/S/C(=N\Nc2ccccc2)C(=O)N1c1ccccc1
IC50 (HepG2): 18.8 µM | IC50 (HCT-116): > 114 µM

N#C/C(C(=O)Nc1ccccc1)=c1/s/c(=C\c2ccccc2)c(=O)n1-c1ccccc1
IC50 (HepG2): 11 µM | IC50 (HCT-116): 33.3 µM | IC50 (MCF7): 75.3 µM

Cc1ccc(NC(=O)/C(C#N)=c2\s/c(=C\c3ccccc3O)c(=O)n2-c2ccccc2)cc1
IC50 (HepG2): 8.25 µM | IC50 (HCT-116): 6.92 µM | IC50 (MCF7): > 110 µM

COc1ccc(/C=c2\s/c(=C(/C#N)C(=O)Nc3ccc(C)cc3)n(-c3ccccc3)c2=O)cc1
IC50 (HepG2): 37.4 µM | IC50 (HCT-116): 9.95 µM | IC50 (MCF7): > 107 µM

N#C/C(C(=O)Nc1ccccc1)=c1/s/c(=C\c2ccccc2O)c(=O)n1-c1ccccc1
IC50 (HepG2): 83 µM | IC50 (HCT-116): 7.8 µM | IC50 (MCF7): 8.85 µM

Cc1ccc(NC(=O)/C(C#N)=c2\s/c(=C\c3ccccc3)c(=O)n2-c2ccccc2)cc1
IC50 (HepG2): 38.2 µM | IC50 (HCT-116): 11 µM | IC50 (MCF7): 55.5 µM

COc1ccc(N/N=C2\S/C(=C(/C#N)C(=O)Nc3ccccc3)N(c3ccccc3)C2=O)cc1
IC50 (HCT-116): 46.4 µM | IC50 (MCF7): 17.6 µM
